Reference: paper PMC9019904, “AD Informer Set: Chemical tools to facilitate Alzheimer's disease drug discovery” (Alzheimer's & Dementia : Translational Research & Clinical …, 2022)

Columns and labels:
[1] = tested on: BV2 (mouse microglia) cell line; test: pHrodo-myelin phagocytosis/cell viability high content imaging assay: viability (cell count, nuclear area, nuclear intensity); details: for 1. Cell count (% control) / 2. Nuclear Area (% Control) / 3. Nuclear DNA Intensity (% control): 48 hours treatment
Procedure: (§1) All AD Informer Set compounds were tested in two immortalized microglial cell lines, murine (BV2), and human (HMC3), in a high‐content imaging assay in duplicate by the Chu lab. Experimental details and all data can be found as supporting information files.
(§2) The role of microglia in AD has been well documented and was thus chosen as a cell type in which to profile the AD Informer Set.[43], [44], [45] As an example, neuroinflammation, as detected by the presence of activated complement proteins, interleukins, cytokines, and chemokines in microglia and astrocytes, is increased early in AD and is considered pathogenic due to its chronic nature.[33], [34] Cytotoxic effects can be assessed by considering multiple parameters.
(§3) Microglial viability and phagocytosis studies: The pHrodo-myelin phagocytosis/cell viability assay, modified based on a published method, was run with immortalized BV2 (mouse microglia) and HMC3 (human microglia) cell lines in the Chu lab at IUSM. The 384-well plate high content analysis assay with BV2 and HMC3 microglial cell lines is used to quantify both phagocytosis and cell viability simultaneously. High content imaging is performed with the ArrayScan automatic imaging system and imaging analysis done with the software on the system. After allowing cells to adhere overnight, they are treated with compounds for total 48 hours including final 20 hours seeded with pHrodo-myelin (labeled phagocytosis ligand, purified […]
(§4) (approximately 22 hours after pHrodo-myelin addition). Three measurements are extracted from the assay: 1) phagocytosis signal by mean total phagocytosis spot intensity per cell, 2) total cell counts per well as the main measurement of cell viability, and 3) mean average nuclear intensity per cell as profiling of cell health since apoptotic cells showing nuclear intensity increase (early apoptosis) and decrease (later apoptosis), respectively. These measurements allow for evaluation of compound-induced phagocytosis (1) and cytotoxicity (2 and 3). Assays were carried out at a single concentration (10 μM). Idelalisib (10 μM) and cytochalasin-D (4 μM) were used as positive controls in the assay. All data, which was an average of 2 data points, was normalized to untreated wells and reported as % control, which is included in the Supporting Information both as a raw data file and summarized in the compound/gene-annotation file.

[2] = tested on: HMC3 (human microglia) cell line; test: as above; details: for 1. Cell count (% control) / 2. Nuclear Area (% Control) / 3. Nuclear DNA Intensity (% control): 48 hours treatment
Procedure: as §1, §2, §3, §4

[3] = tested on: BV2 (mouse microglia) cell line; test: pHrodo-myelin phagocytosis/cell viability high content imaging assay: phagocytosis signal; format: cell-based
Procedure: (§5) It is important to note that stressed cells, such as those that are dying, are prone to show an increase in phagocytosis. […] MerTK promotes phagocytosis and thus MerTK inhibition is proposed to lead to inhibition of phagocytosis.[47]
(§6) phagocytosis and cell viability simultaneously. High content imaging is performed with the
(§7) (approximately 22 hours after pHrodo-myelin addition). Three measurements are extracted
(§8) intensity increase (early apoptosis) and decrease (later apoptosis), respectively. These
and 3). […]

[4] = tested on: HMC3 (human microglia) cell line; test: as above; format: cell-based
Procedure: as §5, §6, §7, §8
and 3). […]

[5] = BV2 cells, 10 uM compound, 48 hours treatment, pHrodo-myelin final 20 hours
[6] = HMC3 cells, 10 uM compound, 48 hours treatment, pHrodo-myelin final 20 hours
[7] = BV2, compound 10 uM, pHrodo-myelin
[8] = HMC3, compound 10 uM, pHrodo-myelin

SMILES | 1. Cell count (% control) ([1]; BV2 cells, 10 uM compound) | 2. Nuclear Area (% Control) ([1]; BV2 cells, 10 uM compound) | 3. Nuclear DNA Intensity (% control) ([1]; BV2 cells, 10 uM compound) | 1. Cell count (% control) ([2]; HMC3 cells, 10 uM compound) | 2. Nuclear Area (% Control) ([2]; HMC3 cells, 10 uM compound) | 3. Nuclear DNA Intensity (% control) ([2]; HMC3 cells, 10 uM compound) | 4. Phagocytosis (% control) [3, 5] | 4. Phagocytosis (% control) [4, 6] | cytotoxicity in mouse microglial cells (cell count < 70% control) ([1]; BV2, 10 μM, 48 hours, cell count) | cytotoxicity in human microglial cells (cell count < 70% control) ([2]; HMC3, 10 μM, 48 hours, cell count) | 1. Cell count (% control) ([1]; BV2, compound 10 uM) | 2. Nuclear Area (% Control) ([1]; BV2, compound 10 uM) | 3. Nuclear DNA Intensity (% control) ([1]; BV2, compound 10 uM) | 1. Cell count (% control) ([2]; HMC3, compound 10 uM) | 2. Nuclear Area (% Control) ([2]; HMC3, compound 10 uM) | 3. Nuclear DNA Intensity (% control) ([2]; HMC3, compound 10 uM) | 4. Phagocytosis (% control) [3, 7] | 4. Phagocytosis (% control) [4, 8]
C=CC(=O)Nc1cc2c(Nc3ccc(F)c(Cl)c3)ncnc2cc1OCCCN1CCOCC1.Cl.Cl [UNC10126563B] | 25.9 % control | 92.7 % Control | 52.1 % control | 45.6 % control | 65.0 % Control | 201.5 % control | 4.1 % control | 0.263 % control |  |  |  |  |  |  |  |  |  | 
Cc1ccc(NC(=O)c2ccc(CN3CCN(C)CC3)cc2)cc1Nc1nc(-c2cccnc2)cs1 [UNC10126573A, masitinib, reference compound] | 7.7 % control | 107.9 % Control | 43.3 % control | 71.0 % control | 92.7 % Control | 124.1 % control | 0.0635 % control | 3.5 % control | displayed cytotoxicity only in mouse microglia | cytotoxicity only in mouse microglia |  |  |  |  |  |  |  | 
O=C(Nc1c[nH]nc1-c1nc2cc(CN3CCOCC3)ccc2[nH]1)NC1CC1 [UNC10126643A] | 6.1 % control | 158.4 % Control | 29.9 % control | 85.8 % control | 114.0 % Control | 123.7 % control | 1.0 % control | 64.5 % control |  |  |  |  |  |  |  |  |  | 
CC(C)(C)c1cc(NC(=O)Nc2ccc(-c3cn4c(n3)sc3cc(OCCN5CCOCC5)ccc34)cc2)no1 [UNC10220373A] |  |  |  |  |  |  |  |  |  |  | 110.4 % control | 100.2 % Control | 106.6 % control | 110.3 % control | 101.4 % Control | 94.2 % control | 143.1 % control | 81.7 % control
C[C@@H](Oc1cc(-c2cnn(C3CCNCC3)c2)cnc1N)c1c(Cl)ccc(F)c1Cl [UNC10220526A] | 44.9 % control | 109.8 % Control | 15.3 % control | 41.7 % control | 75.9 % Control | 183.7 % control | 0.00113 % control | 0.09 % control |  |  |  |  |  |  |  |  |  | 
Nc1nc(Nc2ccc3c(c2)CC[C@@H](N2CCCC2)CC3)nn1-c1cc2c(nn1)-c1ccccc1CCC2 [UNC10220544A] | 2.8 % control | 94.5 % Control | 55.2 % control | 56.4 % control | 55.3 % Control | 170.6 % control | 0.0 % control | 0.8 % control |  |  |  |  |  |  |  |  |  | 
CC1(COc2ccc3c(c2)ncn3-c2ccc3cccc(N4CCC(N)CC4)c3n2)COC1 [UNC10223898A] |  |  |  |  |  |  |  |  |  |  | 26.6 % control | 103.7 % Control | 28.1 % control | 60.3 % control | 56.9 % Control | 188.8 % control | 0.00125 % control | 0.347 % control
Cc1ccc(-n2nc(C(C)(C)C)cc2NC(=O)Nc2ccc(OCCN3CCOCC3)c3ccccc23)cc1 [UNC10225354A] | 127.7 % control | 105.8 % Control | 105.3 % control | 144.2 % control | 99.1 % Control | 93.2 % control | 236.7 % control | 109.7 % control |  |  |  |  |  |  |  |  |  | 
C[C@]12C=CC(=O)C=C1CC[C@@H]1[C@@H]2[C@@H](O)C[C@@]2(C)[C@H]1CC[C@]2(O)C(=O)CO [UNC10240227A] | 107.8 % control | 102.9 % Control | 105.7 % control | 161.9 % control | 102.8 % Control | 82.5 % control | 126.6 % control | 79.4 % control |  |  |  |  |  |  |  |  |  | 
CCc1ccc(CCOc2ccc(CC3SC(=O)NC3=O)cc2)nc1.Cl (stereo not shown) [UNC10240376D] | 113.0 % control | 109.1 % Control | 109.5 % control | 140.5 % control | 99.5 % Control | 91.5 % control | 139.3 % control | 81.1 % control |  |  |  |  |  |  |  |  |  | 
C[C@@H]1O[C@@H](O[C@H]2[C@H](Oc3cc(O)c4c(c3)O[C@H](c3ccc(O)cc3)CC4=O)O[C@H](CO)[C@@H](O)[C@@H]2O)[C@H](O)[C@H](O)[C@H]1O [UNC10242153A] | 113.5 % control | 104.9 % Control | 98.8 % control | 139.8 % control | 102.9 % Control | 93.8 % control | 167.6 % control | 65.7 % control |  |  |  |  |  |  |  |  |  | 
Cc1cc(Nc2ncc(Cl)c(Nc3ccccc3S(=O)(=O)C(C)C)n2)c(OC(C)C)cc1C1CCNCC1 [UNC10244729A] | 19.2 % control | 92.5 % Control | 49.1 % control | 28.7 % control | 60.3 % Control | 155.5 % control | 0.00122 % control | 0.00248 % control |  |  |  |  |  |  |  |  |  | 
COc1cc(N2CCC(N3CCN(C)CC3)CC2)ccc1Nc1ncc(Cl)c(Nc2ccccc2P(C)(C)=O)n1 [UNC10244797A] |  |  |  |  |  |  |  |  |  |  | 44.4 % control | 109.2 % Control | 111.1 % control | 103.9 % control | 120.2 % Control | 97.2 % control | 236.8 % control | 99.4 % control
C[C@H]1Oc2cc(cnc2N)-c2c(nn(C)c2C#N)CN(C)C(=O)c2ccc(F)cc21 [UNC10244898A] | 117.2 % control | 102.7 % Control | 110.1 % control | 127.2 % control | 110.3 % Control | 89.2 % control | 200.3 % control | 37.8 % control |  |  |  |  |  |  |  |  |  | 
CCc1cc2c(cc1N1CCC(N3CCOCC3)CC1)C(C)(C)c1[nH]c3cc(C#N)ccc3c1C2=O [UNC10245077A] |  |  |  |  |  |  |  |  |  |  | 128.2 % control | 94.3 % Control | 130.0 % control | 0.0 % control | 0.0 % Control | 0.0 % control | 169.6 % control | 22.4 % control
Cc1cccc(-c2nn3c(c2-c2ccnc4ccc(C(N)=O)cc24)CCC3)n1 [UNC10245080A] | 99.1 % control | 108.1 % Control | 97.4 % control | 126.0 % control | 104.6 % Control | 85.7 % control | 174.0 % control | 85.1 % control |  |  |  |  |  |  |  |  |  | 
